# ChEMBL document CHEMBL4507327 (2021)
# Tests used:
# [1] = target: Neuropeptide Y receptor type 2 (Homo sapiens) (UniProt P49146); test: Inhibition of Neuropeptide Y Y2 at 10 µM in the Eurofins-Panlabs radioligand binding assay (Eurofins_assay_257110); conditions: Compound concentration 10.0 uM
# [2] = target: Alpha-1B adrenergic receptor (Homo sapiens) (UniProt P35368); test: Adrenergic alpha1B Eurofins-Panlabs radioligand binding assay; set-up: ligand concentration 0.2 nM; conditions: Compound concentration 10.0 uM
# [3] = target: Interleukin-1 receptor type 1 (Homo sapiens) (UniProt P14778); test: Interleukin IL-1 R1 Eurofins-Panlabs radioligand binding assay; set-up: ligand concentration 0.1 nM; conditions: Compound concentration 10.0 uM
# [4] = target: Activin receptor type-1-like (Homo sapiens, UniProt P37023); test: ALK1(ACL1LGF1) Takeda global kinase panel
# Aurora kinase A = Aurora kinase A (Homo sapiens, UniProt O14965); test: AurA [Aur2(AURALGF1)] Takeda global kinase panel
# Aurora kinase B = Aurora kinase B (Homo sapiens, UniProt Q96GD4); test: AurB [Aur1(AURBPGE1)] Takeda global kinase panel
# [5] = target: Tyrosine-protein kinase Blk (Homo sapiens, UniProt P51451); test: BLK(BLK1CGF1) Takeda global kinase panel
# [6] = target: Bone morphogenetic protein receptor type-1A (Homo sapiens, UniProt P36894); test: BMPR1A(BM1APHRG) Takeda global kinase panel
# [7] = target: Tyrosine-protein kinase BTK (Homo sapiens, UniProt Q06187); test: BTK(BTK1CGF1) Takeda global kinase panel
# [8] = target: Cyclin-dependent kinase 12 (Homo sapiens, UniProt Q9NYV4); test: CRK7(CD12PHS1) Takeda global kinase panel
# [9] = target: Cyclin-dependent kinase 14 (Homo sapiens, UniProt O94921); test: PFTAIRE1(CD14CGS1) Takeda global kinase panel
# [10] = target: Cyclin-dependent kinase 18 (Homo sapiens, UniProt Q07002); test: PCTAIRE3(CD18SGS1) Takeda global kinase panel
# [11] = target: Dual specificity tyrosine-phosphorylation-regulated kinase 1A (Homo sapiens, UniProt Q13627); test: DYRK1A(DY1ALGP1) Takeda global kinase panel
# [12] = target: Dual specificity tyrosine-phosphorylation-regulated kinase 2 (Homo sapiens, UniProt Q92630); test: DYRK2(DYR2LGY1) Takeda global kinase panel
# [13] = target: Interferon-induced, double-stranded RNA-activated protein kinase (Homo sapiens, UniProt P19525); test: PKR(EIK2LGY1) Takeda global kinase panel
# eIF-2-alpha kinase GCN2 = eIF-2-alpha kinase GCN2 (Homo sapiens, UniProt Q9P2K8); test: GCN2(EIK4PHK1) Takeda global kinase panel
# Ephrin type-A receptor 8 = Ephrin type-A receptor 8 (Homo sapiens, UniProt P29322); test: EphA8(EPA8LGF1) Takeda global kinase panel
# Ephrin type-B receptor 4 = Ephrin type-B receptor 4 (Homo sapiens, UniProt P54760); test: EphB4(EPB4LGY1) Takeda global kinase panel
# [14] = target: Tyrosine-protein kinase Fgr (Homo sapiens, UniProt P09769); test: Fgr(FGR1LGF1) Takeda global kinase panel
# [15] = target: G protein-coupled receptor kinase 5 (Homo sapiens, UniProt P34947); test: GRK5(GRK5LGP1) Takeda global kinase panel
# [16] = target: G protein-coupled receptor kinase 6 (Homo sapiens, UniProt P43250); test: GRK6(GRK6LGP1) Takeda global kinase panel
# [17] = target: Mitogen-activated protein kinase kinase kinase kinase 1 (Homo sapiens, UniProt Q92918); test: HPK1(M4K1LGY1) Takeda global kinase panel
# [18] = target: Mitogen-activated protein kinase 12 (Homo sapiens, UniProt P53778); test: p38gamma(MP12LGP1) Takeda global kinase panel
# [19] = target: Mitogen-activated protein kinase 6 (Homo sapiens, UniProt Q16659); test: ERK3(MAP6LHY1) Takeda global kinase panel
# [20] = target: Mitogen-activated protein kinase 8 (Homo sapiens, UniProt P45983); test: JNK1(MAP8LGF1) Takeda global kinase panel
# [21] = target: Serine/threonine-protein kinase MARK2 (Homo sapiens, UniProt Q7KZI7); test: MARK2(MAR2LGY1) Takeda global kinase panel
# [22] = target: MAP/microtubule affinity-regulating kinase 3 (Homo sapiens, UniProt P27448); test: MARK3(MAR3LGO5) Takeda global kinase panel
# [23] = target: Microtubule-associated serine/threonine-protein kinase 1 (Homo sapiens, UniProt Q9Y2H9); test: MAST1(MAS1LGE5) Takeda global kinase panel
# [24] = target: Maternal embryonic leucine zipper kinase (Homo sapiens, UniProt Q14680); test: MELK(MELKLGF1) Takeda global kinase panel
# [25] = target: High affinity nerve growth factor receptor (Homo sapiens, UniProt P04629); test: TRKA(NTR1LGN1) Takeda global kinase panel
# [26] = target: NUAK family SNF1-like kinase 2 (Homo sapiens, UniProt Q9H093); test: NuaK2(NUA2LHY1) Takeda global kinase panel
# [27] = target: Serine/threonine-protein kinase pim-3 (Homo sapiens, UniProt Q86V86); test: Pim3(PIM3LGP1) Takeda global kinase panel
# [28] = target: Protein kinase C delta type (Homo sapiens, UniProt Q05655); test: PKCdelta(PRKDPFP1) Takeda global kinase panel
# [29] = target: Protein kinase C epsilon type (Homo sapiens, UniProt Q02156); test: PKCepsilon(PRKELHY1) Takeda global kinase panel
# [30] = target: Protein kinase C iota type (Homo sapiens, UniProt P41743); test: PKCiota(PRKILGRD) Takeda global kinase panel
# [31] = target: Protein kinase C zeta type (Homo sapiens, UniProt Q05513); test: PKCzeta(PRKZLGP1) Takeda global kinase panel
# [32] = target: Serine/threonine-protein kinase D1 (Homo sapiens, UniProt Q15139); test: PKD1(PRD1LHY1) Takeda global kinase panel
# [33] = target: Serine/threonine-protein kinase H1 (Homo sapiens, UniProt P11801); test: PSKH1(PSH1LGRH) Takeda global kinase panel
# [34] = target: Ribosomal protein S6 kinase alpha-5 (Homo sapiens, UniProt O75582); test: MSK1(R6A5LGY1) Takeda global kinase panel
# [35] = target: STE20-like serine/threonine-protein kinase (Homo sapiens, UniProt Q9H2G2); test: SLK(SLK1LGRJ) Takeda global kinase panel
# [36] = target: Serine/threonine-protein kinase 32C (Homo sapiens, UniProt Q86UX6); test: YANK3(S32CLGI1) Takeda global kinase panel
# [37] = target: Serine/threonine-protein kinase 33 (Homo sapiens, UniProt Q9BYT3); test: STK33(ST33LGF1) Takeda global kinase panel
# TGF-beta receptor type-1 = TGF-beta receptor type-1 (Homo sapiens, UniProt P36897); test: TGFbetaR1(TGF1LGF1) Takeda global kinase panel
# Activated CDC42 kinase 1 = Activated CDC42 kinase 1 (Homo sapiens, UniProt Q07912); test: Ack(TNK2LGF1) Takeda global kinase panel
# [38] = target: Hormonally up-regulated neu tumor-associated kinase (Homo sapiens, UniProt P57058); test: HUNK(HUNKLGRN) Takeda global kinase panel
# [39] = target: Bromodomain-containing protein 4 (Homo sapiens, UniProt O60885); test: BRD4(BRD4LGRC) Takeda global kinase panel
# Homo sapiens = species on record: Homo sapiens; conditions: Compound concentration 10.0 uM
# Sequence of Protein kinase C epsilon type (Q02156 whole entry): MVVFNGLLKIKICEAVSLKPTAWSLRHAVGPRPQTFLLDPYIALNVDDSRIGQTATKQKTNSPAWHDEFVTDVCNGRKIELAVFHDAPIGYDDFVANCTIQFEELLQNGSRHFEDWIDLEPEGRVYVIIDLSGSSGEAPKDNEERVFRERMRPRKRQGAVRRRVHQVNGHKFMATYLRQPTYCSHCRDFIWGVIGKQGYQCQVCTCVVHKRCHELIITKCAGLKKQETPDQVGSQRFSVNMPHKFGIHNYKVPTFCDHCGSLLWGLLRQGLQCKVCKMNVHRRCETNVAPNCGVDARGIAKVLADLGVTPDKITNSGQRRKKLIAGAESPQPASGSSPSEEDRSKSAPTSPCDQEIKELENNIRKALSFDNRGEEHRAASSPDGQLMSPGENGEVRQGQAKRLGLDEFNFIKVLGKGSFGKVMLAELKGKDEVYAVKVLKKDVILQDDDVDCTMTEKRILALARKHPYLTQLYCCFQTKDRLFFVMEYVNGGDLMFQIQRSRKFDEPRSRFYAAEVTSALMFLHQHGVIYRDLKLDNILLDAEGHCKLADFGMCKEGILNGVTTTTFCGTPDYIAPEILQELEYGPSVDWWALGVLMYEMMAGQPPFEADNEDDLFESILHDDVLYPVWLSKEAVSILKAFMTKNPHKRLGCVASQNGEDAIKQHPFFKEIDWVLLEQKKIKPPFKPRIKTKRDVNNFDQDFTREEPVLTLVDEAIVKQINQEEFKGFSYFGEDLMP
# Sequence of Protein kinase C zeta type (Q05513 whole entry): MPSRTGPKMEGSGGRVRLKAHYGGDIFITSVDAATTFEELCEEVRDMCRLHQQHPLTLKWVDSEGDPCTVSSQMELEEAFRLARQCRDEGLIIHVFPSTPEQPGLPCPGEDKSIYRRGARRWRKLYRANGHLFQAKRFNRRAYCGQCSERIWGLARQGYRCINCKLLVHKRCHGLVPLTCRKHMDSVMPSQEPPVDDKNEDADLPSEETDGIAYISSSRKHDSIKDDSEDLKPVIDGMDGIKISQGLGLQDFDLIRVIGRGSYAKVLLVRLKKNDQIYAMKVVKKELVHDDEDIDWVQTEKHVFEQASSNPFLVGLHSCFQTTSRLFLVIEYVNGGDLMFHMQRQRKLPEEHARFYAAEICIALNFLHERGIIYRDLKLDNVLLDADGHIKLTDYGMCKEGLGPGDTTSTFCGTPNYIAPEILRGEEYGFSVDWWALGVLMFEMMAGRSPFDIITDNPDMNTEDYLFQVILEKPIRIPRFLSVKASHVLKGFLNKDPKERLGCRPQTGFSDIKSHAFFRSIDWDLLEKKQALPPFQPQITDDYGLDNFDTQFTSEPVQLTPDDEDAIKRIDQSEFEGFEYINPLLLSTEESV
# Sequence of Cyclin-dependent kinase 14 (O94921 whole entry): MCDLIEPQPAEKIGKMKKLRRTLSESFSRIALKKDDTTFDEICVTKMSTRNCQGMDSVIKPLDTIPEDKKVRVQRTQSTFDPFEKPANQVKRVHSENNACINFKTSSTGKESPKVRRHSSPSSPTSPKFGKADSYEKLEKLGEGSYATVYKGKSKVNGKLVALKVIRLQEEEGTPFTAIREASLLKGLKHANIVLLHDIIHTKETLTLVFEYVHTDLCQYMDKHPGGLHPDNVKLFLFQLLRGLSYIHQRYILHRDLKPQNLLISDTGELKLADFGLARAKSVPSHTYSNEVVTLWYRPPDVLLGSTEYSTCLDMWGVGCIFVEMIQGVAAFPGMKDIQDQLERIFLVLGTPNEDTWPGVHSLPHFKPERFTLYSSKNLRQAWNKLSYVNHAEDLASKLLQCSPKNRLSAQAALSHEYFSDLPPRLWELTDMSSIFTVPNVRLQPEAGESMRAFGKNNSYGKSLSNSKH
# Sequence of Maternal embryonic leucine zipper kinase (Q14680 whole entry): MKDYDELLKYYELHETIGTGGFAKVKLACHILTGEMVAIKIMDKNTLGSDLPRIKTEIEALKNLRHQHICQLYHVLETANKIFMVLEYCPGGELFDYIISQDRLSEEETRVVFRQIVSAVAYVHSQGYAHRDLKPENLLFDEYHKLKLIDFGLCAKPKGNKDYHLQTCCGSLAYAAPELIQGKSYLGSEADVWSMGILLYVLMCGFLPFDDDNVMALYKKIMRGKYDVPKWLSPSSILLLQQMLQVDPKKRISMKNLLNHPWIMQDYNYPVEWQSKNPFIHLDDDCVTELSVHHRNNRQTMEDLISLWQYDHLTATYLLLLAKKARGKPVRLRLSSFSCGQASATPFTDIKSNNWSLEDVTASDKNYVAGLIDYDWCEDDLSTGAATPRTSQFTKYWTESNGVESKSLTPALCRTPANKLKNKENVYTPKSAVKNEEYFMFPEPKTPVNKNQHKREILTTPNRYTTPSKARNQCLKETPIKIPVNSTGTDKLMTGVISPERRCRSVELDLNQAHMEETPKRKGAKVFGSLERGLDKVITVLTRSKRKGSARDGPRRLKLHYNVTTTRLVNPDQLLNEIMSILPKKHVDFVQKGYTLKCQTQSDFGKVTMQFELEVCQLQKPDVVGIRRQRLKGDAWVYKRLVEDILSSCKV
# Sequence of Tyrosine-protein kinase Blk (P51451 whole entry): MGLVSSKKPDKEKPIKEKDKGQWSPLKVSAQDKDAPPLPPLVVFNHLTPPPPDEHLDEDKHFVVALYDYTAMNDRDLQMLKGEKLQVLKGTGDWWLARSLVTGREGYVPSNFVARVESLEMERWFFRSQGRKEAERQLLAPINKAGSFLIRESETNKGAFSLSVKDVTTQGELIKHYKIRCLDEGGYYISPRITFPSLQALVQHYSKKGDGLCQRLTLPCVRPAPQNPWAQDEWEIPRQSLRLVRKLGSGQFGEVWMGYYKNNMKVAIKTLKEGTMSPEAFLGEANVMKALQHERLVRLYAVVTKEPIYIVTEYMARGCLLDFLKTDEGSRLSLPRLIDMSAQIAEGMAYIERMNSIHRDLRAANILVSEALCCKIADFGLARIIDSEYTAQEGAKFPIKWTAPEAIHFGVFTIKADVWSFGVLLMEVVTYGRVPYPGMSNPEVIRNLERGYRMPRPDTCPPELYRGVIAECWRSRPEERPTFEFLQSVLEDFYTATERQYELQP
# Sequence of Protein kinase C delta type (Q05655 whole entry): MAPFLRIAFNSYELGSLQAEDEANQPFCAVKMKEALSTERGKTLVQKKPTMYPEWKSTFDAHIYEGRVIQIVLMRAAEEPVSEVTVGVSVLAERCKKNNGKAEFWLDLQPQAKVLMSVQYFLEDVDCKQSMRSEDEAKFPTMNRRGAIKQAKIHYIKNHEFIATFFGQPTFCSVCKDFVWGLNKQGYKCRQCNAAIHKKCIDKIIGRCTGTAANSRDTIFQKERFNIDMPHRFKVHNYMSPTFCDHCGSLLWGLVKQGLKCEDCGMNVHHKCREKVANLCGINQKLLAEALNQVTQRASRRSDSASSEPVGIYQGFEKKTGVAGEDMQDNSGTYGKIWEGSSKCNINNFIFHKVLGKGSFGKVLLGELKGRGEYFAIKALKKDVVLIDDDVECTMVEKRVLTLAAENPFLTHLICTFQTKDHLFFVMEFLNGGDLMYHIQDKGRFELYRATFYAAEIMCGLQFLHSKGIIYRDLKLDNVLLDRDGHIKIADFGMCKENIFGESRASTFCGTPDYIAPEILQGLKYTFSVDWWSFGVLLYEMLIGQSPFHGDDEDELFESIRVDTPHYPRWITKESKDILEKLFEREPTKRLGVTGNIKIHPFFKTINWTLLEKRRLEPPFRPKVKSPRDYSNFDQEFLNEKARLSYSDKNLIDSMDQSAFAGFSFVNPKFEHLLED
# Sequence of Aurora kinase A (O14965 whole entry): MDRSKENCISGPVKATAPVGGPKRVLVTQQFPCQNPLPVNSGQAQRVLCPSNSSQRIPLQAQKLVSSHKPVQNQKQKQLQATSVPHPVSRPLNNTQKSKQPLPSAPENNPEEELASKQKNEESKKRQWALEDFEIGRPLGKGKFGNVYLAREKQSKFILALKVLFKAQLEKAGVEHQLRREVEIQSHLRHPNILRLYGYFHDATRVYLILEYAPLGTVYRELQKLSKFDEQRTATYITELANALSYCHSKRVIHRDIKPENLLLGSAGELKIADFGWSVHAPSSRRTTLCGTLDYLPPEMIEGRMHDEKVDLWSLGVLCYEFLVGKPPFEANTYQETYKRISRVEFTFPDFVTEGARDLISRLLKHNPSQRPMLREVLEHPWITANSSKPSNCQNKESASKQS
# Sequence of Aurora kinase B (Q96GD4 whole entry): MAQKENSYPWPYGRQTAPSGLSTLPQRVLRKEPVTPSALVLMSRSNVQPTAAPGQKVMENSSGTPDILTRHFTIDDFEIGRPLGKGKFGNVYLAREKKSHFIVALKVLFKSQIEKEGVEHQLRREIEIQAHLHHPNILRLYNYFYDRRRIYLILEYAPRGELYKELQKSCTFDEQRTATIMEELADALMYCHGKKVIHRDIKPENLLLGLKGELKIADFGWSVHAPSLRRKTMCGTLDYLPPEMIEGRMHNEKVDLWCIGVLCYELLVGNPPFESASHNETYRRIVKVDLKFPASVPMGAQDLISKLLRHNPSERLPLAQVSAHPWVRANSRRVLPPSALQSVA
# Sequence of Activin receptor type-1-like (P37023 whole entry): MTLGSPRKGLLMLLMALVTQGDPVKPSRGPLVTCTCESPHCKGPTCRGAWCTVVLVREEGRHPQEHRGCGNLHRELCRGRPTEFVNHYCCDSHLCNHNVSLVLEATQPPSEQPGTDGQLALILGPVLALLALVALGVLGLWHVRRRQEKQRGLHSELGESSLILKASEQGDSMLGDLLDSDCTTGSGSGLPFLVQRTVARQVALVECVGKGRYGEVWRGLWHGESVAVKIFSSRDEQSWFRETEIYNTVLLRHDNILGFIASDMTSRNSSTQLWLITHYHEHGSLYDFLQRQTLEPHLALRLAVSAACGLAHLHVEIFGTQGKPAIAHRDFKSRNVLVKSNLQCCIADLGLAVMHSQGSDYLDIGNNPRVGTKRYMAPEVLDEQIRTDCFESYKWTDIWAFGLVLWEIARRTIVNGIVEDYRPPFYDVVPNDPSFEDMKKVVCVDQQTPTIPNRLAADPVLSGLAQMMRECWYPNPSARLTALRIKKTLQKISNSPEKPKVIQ
compound,measurement,setting,value
CN1C(=O)[C@@H](N2CCc3cn(Cc4ccccc4)nc3C2=O)COc2ccccc21 [TP-030-1],inhibition,[1],2%
same,inhibition,[2],2%
same,inhibition,[3],-7%
same,IC50,[4],1000 nM
same,IC50,Aurora kinase A,1000 nM
same,IC50,Aurora kinase B,1000 nM
same,IC50,[5],1000 nM
same,IC50,[6],1000 nM
same,IC50,[7],1000 nM
same,IC50,[8],1000 nM
same,IC50,[9],1000 nM
same,IC50,[10],1000 nM
same,IC50,[11],1000 nM
same,IC50,[12],1000 nM
same,IC50,[13],1000 nM
same,IC50,eIF-2-alpha kinase GCN2,1000 nM
same,IC50,Ephrin type-A receptor 8,1000 nM
same,IC50,Ephrin type-B receptor 4,1000 nM
same,IC50,[14],1000 nM
same,IC50,[15],1000 nM
same,IC50,[16],1000 nM
same,IC50,[17],1000 nM
same,IC50,[18],1000 nM
same,IC50,[19],1000 nM
same,IC50,[20],1000 nM
same,IC50,[21],1000 nM
same,IC50,[22],1000 nM
same,IC50,[23],1000 nM
same,IC50,[24],1000 nM
same,IC50,[25],1000 nM
same,IC50,[26],1000 nM
same,IC50,[27],1000 nM
same,IC50,[28],1000 nM
same,IC50,[29],1000 nM
same,IC50,[30],1000 nM
same,IC50,[31],1000 nM
same,IC50,[32],1000 nM
same,IC50,[33],1000 nM
same,IC50,[34],1000 nM
same,IC50,[35],1000 nM
same,IC50,[36],1000 nM
same,IC50,[37],1000 nM
same,IC50,TGF-beta receptor type-1,1000 nM
same,IC50,Activated CDC42 kinase 1,1000 nM
same,IC50,[38],1000 nM
same,IC50,[39],1000 nM
same,inhibition,Homo sapiens,21%
